Test results published in US12458650B2, “Urination disorder-improving agent” (ASKA Pharmaceutical Co., Ltd., priority 2019, dated 2025).

Tests used:
bladder specimen = assay: Test Example 3: isometric contraction test of bladder specimen from high-week-old male rats after repeated oral dosing; assay type: in vivo, rat; conditions: Group A: 10 mg/kg oral once a day, 2 weeks; compared with Group C (dutasteride 0.3 mg/kg); FIG. 9, 10
Text: High-week-old male rats (22-week-old; Charles River Laboratories Japan, Inc.) were examined and evaluated for the relationship between the test substances and the bladder and urethra contraction reaction. Since the rats are high-week-old, the rats are a model in which the prostate is predicted to be enlarged.
A test substance was orally administered to the high-week-old male rats repeatedly at a frequency of once a day over two (2) weeks, and then, from each rat, a bladder specimen was extracted. The bladder specimen was suspended at a resting tension of about 9.8 mN in a constant-temperature Magnus tube (37° C.) filled with a physiological salt solution aerated with 95% O2-5% CO2 gas and was subjected to an isometric contraction test by applying a square-wave electrical field stimulation (EFS, Amplitude; 0.3 ms, Frequency; 1, 2, 5, 10, 20 Hz, Duration; 5 s); or Carbachol (CCH, 100 nmol/L to 100 μmol/L) and KCl (40, 80 mmol/L).
Solvent group (control group): 0.5 v/v % Polysorbate 80 solution, 10 mL/kg (n=6) • Group A: Compound A, 10 mg/kg (n=6) • Group C: Compound C (dutasteride), 0.3 mg/kg (n=6)

[1] = system: model of a urination disorder associated with streptozocin-induced diabetes; assay: Test Example 6: urination disorder model associated with streptozocin-induced diabetes, compound A versus dutasteride; assay type: in vivo, rat
Experimental: As described below, a model of a urination disorder associated with streptozocin-induced diabetes was prepared as a urination disorder model in accordance with Test Example 4 to evaluate the effects of the compound A and the compound C on a urination disorder. This model has no benign prostatic hyperplasia and is a model of a urination disorder associated with neuropathy and smooth muscle contraction disorder.
The body weights of Rats (male, Crl:CD(SD), 5-week-old; Charles River Laboratories Japan, Inc.) were measured. On the basis of the body weight, the rats were grouped or divided into two (2) groups. The day after the rats were grouped, a fist group received intraperitoneal administration of a citrate buffer (pH 4.5) (10 mL/kg) having a concentration of 0.1 mmol/L, and a second group received intraperitoneal administration of streptozocin (STZ; Sigma-Aldrich) (50 mg/kg). Streptozocin (STZ) was administered in the form of a solution of streptozocin having a concentration of 5 mg/mL in the citrate buffer.
About one (1) week after streptozocin (STZ) was administered, the body weight and the fasting blood glucose were measured. In the streptozocin (STZ) administration group (the second group), individuals having a fasting blood glucose level of not less than 300 mg/dL were used as animals with induced diabetes. These animals with induced diabetes are a model having no abnormality of the prostate (having no benign prostatic hyperplasia). On the basis of the body weight and the fasting blood glucose level, the animals (models) with induced diabetes were grouped or divided into three (3) groups by randomized, multivariable block allocation.
To the three model groups with induced diabetes, a 0.5 v/v % Polysorbate 80 solution (0.5% P) (10 mL/kg), the compound A (3 mg/kg), and the compound C (dutasteride) (0.3 mg/kg) were orally administered, respectively, wherein the administration schedule in all groups was a frequency of once a day, only on weekdays, over four (4) weeks. Moreover, to the above-mentioned first group, a 0.5 v/v % Polysorbate 80 solution (0.5% P) (10 mL/kg) was orally administered in the same administration schedule (normal group). On the last day of administration, a cannula was inserted into and secured to the dome of the bladder under isoflurane anesthesia, and cystometry (Cystometogram, CMG) was conducted in the order of under awake condition and under urethane anesthesia to measure the intravesical pressure, the voided volume, and the residual urine volume. After the completion of the measurement, the blood was collected under deep isoflurane anesthesia, and then the prostate (ventral prostate, dorsolateral prostate) was extracted and each was weighed. Moreover, the blood glucose level in the collected blood was measured.
The test substances and the dosage in the test system (rats having the urination disorder associated with diabetes) are as follows. • Normal group: citrate buffer 10 mL/kg (intraperitoneal administration), 0.5% P 10 mL/kg (oral administration) (n=10) • Solvent group (control group): STZ 50 mg/kg (intraperitoneal administration), 0.5% P 10 mL/kg (oral administration) (n=10) • Group A3: STZ 50 mg/kg (intraperitoneal administration), Compound A 3 mg/kg (oral administration) (n=10) • Group C0.3: STZ 50 mg/kg (intraperitoneal administration), Compound C (dutasteride) 0.3 mg/kg (oral administration) (n=10)
Urination parameter: In the same manner as in Test Example 4, the residual urine volume (mL) and the urination efficiency % were determined as urination parameters in each urination, and the average value of two measurements was taken as a measured value of each individual.
Prostate weight: In the same manner as in Test Example 4, the weight of the prostate (ventral prostate, dorsolateral prostate, and whole) was converted to a tissue weight per 100 g of the body weight. […]

[2] = Group A3: 3 mg/kg oral, 4 weeks, relative to solvent group

CC(=O)O[C@]1(C(C)=O)C[C@@H](O)[C@H]2[C@@H]3C=C(Cl)C4=CC(=O)OC[C@]4(C)[C@H]3CC[C@@]21C [Compound A, 17α-acetoxy-6-chloro-15β-hydroxy-2-oxa-4,6-pregnadiene-3,20-dione]
bladder contraction tension caused by square-wave electrical field stimulation or Carbachol and KCl (bladder specimen): significantly strong or has a strong directionality
therapeutic effect on diabetes (blood glucose level) ([1]; Group A3: 3 mg/kg oral, 4 weeks): no therapeutic effect on diabetes
Dorsolateral prostate (atrophy rate) [1, 2]: (40.2%)
Ventral prostate (atrophy rate) [1, 2]: (40.0%)
Whole prostate (atrophy rate) [1, 2]: (40.1%)
residual urine volume ([1]; Group A3: 3 mg/kg, cystometry under awake condition, vs solvent group (p<0.05), FIG. 19): significantly decreased
urination efficiency ([1]; Group A3: 3 mg/kg, cystometry under awake condition, vs solvent group (p<0.05), FIG. 20): significantly improved
bladder contraction force on urination by nomogram analysis ([1]; Group A3: 3 mg/kg, in comparison with the solvent group and Group C0.3, FIG. 21): strong bladder contraction force
